The text below walks through data of patent US10752900B2, “Oligonucleotides for modulating gene expression and uses thereof” (BIOGENERA S.P.A., priority 2012, dated 2020).

The test system of one series is MYCN gene. The series can be described thus: QT-PCR, MYCN mRNA in H69 cells. In kind it is cell-based, human. Particulars: Table 6. The protocol:
For the purpose of assessing the ability of the oligonucleotides of the present invention to modulate the expression of the target genes, their ability to reduce the quantity of messenger RNA was analyzed using the Real-Time PCR technique.
For this purpose, use was made of 24-well plates, which were seeded with 5.0×10^4 cells with 0.3 ml of OPTI-MEM (GIBCO BRL) medium, 4% FBS and 2 mM L-glutammine (experiments in triplicate) per well.
The cells were incubated for 24 hours at 37° C., in an atmosphere containing 5% CO2 to permit adherence to the base of the wells.
For each well, the oligonucleotides were analyzed at the following final concentrations: • the antisense oligonucleotides siRNA and siRNA gapmer (i.e. the oligonucleotides containing one or more monomers of chemically modified nucleic acids at the 3′ or 5′ end, while in the central portion they have monomers of nucleic acids that have not been modified or have been modified at the level of the phosphodiester bond as a phosphorothioate bond) were used at 200 nM; • the antisense oligonucleotides containing phosphorothioate DNA monomers, the RNA antigene oligonucleotides (agRNA) and the oligonucleotides containing DNA monomers and LNA monomers were used at 10 μM; • the morpholino oligonucleotides were used at a concentration of 1 μM, and • the PNA oligonucleotides were administered at a concentration of 1 μM.
The cells were treated with the oligonucleotides, adding FBS up to 4% 6 hours after administration of the same. After 24 hours the total RNA was extracted from each well and purified using the RNeasy Mini Kit (QIAGEN).
Assays were performed on 8 cell lines obtained from 5 different human tumours which are correlated with MYCN expression, i.e.: • as a neuroblastoma model use was made of the cell lines Kelly, IMR-32 (where the MYCN gene is amplified and superexpressed) and SKNBE2c and LAN1 (where the MYCN gene is amplified and superexpressed and the p53 gene is mutated); • as a rabdomiosarcoma model use was made of the cell line RH30, where the MYCN gene is amplified and superexpressed; • as a Wilms' tumour model use was made of the cell line WiT49, where the MYCN gene is amplified and superexpressed; • as a retinoblastoma model use was made of the cell line Y79, where the MYCN gene is amplified and superexpressed; and • as a model of small cell lung cancer use was made of the cell line H69 where the MYCN gene is amplified and superexpressed.
As a control, use was made of the same cell lines as listed above treated with sterile water instead of oligonucleotides. Each RNA sample was quantified (in duplicate) using a NanoDrop ND-1000 spectrophotometer (NanoDrop Technologies). The first strand of cDNA was produced using the cDNA Synthesis Kit for RT-PCR (Roche). For the cDNA synthesis reaction a total of 1 μg of RNA was used. For the real-time PCR, 10 ng of cDNA in a final volume of 20 μl was used with SYBR Green Master Mix 2× (Applied Biosystems) (3 identical experiments were conducted in triplicate). Two housekeeping genes were used as positive controls: GAPDH and beta-actin (ACTB).
The conditions of the QT-PCR reaction were: 10 min at 95° C., 20 sec at 95° C., and 30 sec at 60° C., for 50 cycles.
The PNAs having SEQ ID NO: 1-12 were also tested on different cell lines which overexpress MYCN (Kelly, SKNBE2c, RH30, WiT49, WERI-Rb1 1 and H69). The results are shown in Table 6 and confirm the selectivity and specificity of the inhibition effect of the PNAs on the product of protein translation of the MYCN gene.
The oligonucleotides were tested in vitro (at a concentration of 2.5 μM) to determine their ability to inhibit the transcription of the gene they are directed against by measuring the levels of the gene messenger in cellular models in which the gene of interest is overexpressed. The methods used are the ones described in example 1. […]

The next series has as its system Kelly cells. Nature of the series: Cellular proliferation assay (ATP-Lite), Kelly cells. Format: cell-based, human. Particulars: for Cell Prolif (%) 1 μM 72 h: PNA 1 μM; for Cell Prolif. (%) 5 μM 72 h: PNA 5 μM; for Cell Prolif. (%) 10 μM 72 h: PNA 10 μM; for Cell Prolif (%) 2,5 μM 72 h: PNA 2,5 μM; for Cell Prolif. (%): Table 1, treated vs untreated control cells; for Kelly % cell prol.: Table 6. An outline of the steps:
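Kelly cells seeded at 5×10^3/well in OPTI-MEM with 4% FBS and 2 mM L-glutamine, in triplicate. PNA oligonucleotides at 1, 2.5, 5 or 10 μM. Viability by ATP-Lite luminescence at 48, 72, 96 and 168 h, as ratio to untreated controls.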

The subject of a further series is WERI-Rb1. Nature of the series: Cellular proliferation assay (ATP-Lite), WERI-Rb1 cells. Format: cell-based. Particulars: Table 6. The protocol: (§1) For the purpose of assessing the gene modulation ability of the oligonucleotides of the present invention, the effect of their administration on cell viability was determined. For this purpose 5×10^3 cells per well were seeded into 96-well cell culture plates (experiments conducted in triplicate) with 100 μl of OPTI-MEM (GIBCO BRL) medium containing 4% FBS and 2 mM of L-glutammine. The PNA oligonucleotides were administered at different concentrations (1 μM-2.5 μM-5 μM-10 μM) in order to observe a dose-effect relationship. The viability of the treated cells was determined at 48, 72, 96 and 168 hours after treatment. Cell viability was assessed by means of an ATP-Lite assay (Luminescence ATP Detection Assay System, PerkinElmer) and is reported as the ratio between the average signal of the treated wells compared to the average value of the wells of untreated control cells. The cells were processed following the instructions provided with the kit. The assays were performed on the same cell lines used to determine the levels of the MYCN gene messenger and listed in the paragraph: Treatments with Oligonucleotides-QT-PCR. The PNAs having SEQ ID NO: 1-12 were also tested on different cell lines which overexpress MYCN (Kelly, SKNBE2c, RH30, […] 1 and H69). The results are shown in Table 6 and confirm the selectivity and specificity of the inhibition effect of the PNAs on the product of protein translation of the MYCN gene.

The test system of a further series is SKNBE2c. The series can be described thus: Cellular proliferation assay (ATP-Lite), SKNBE2c cells. Format: cell-based, human. Conditions: Table 6. The protocol: as §1

With “SEQ ID NO: 1: PNA ATGCCGGGCATGATCT against MYCN; subject of patent EP 1618195, control sequence used for comparison (all peptide nucleic acid (PNA)) [reference compound]”, the “H69 % mRNA” value with MYCN gene is listed as 40%. In addition, in the series with Kelly cells, the “Cell Prolif (%) 1 μM 72 h” value stood at 89%, the “Cell Prolif. (%) 5 μM 72 h” value was found to be 50%, the “Cell Prolif. (%) 10 μM 72 h” value came to 24% and the “Cell Prolif (%) 2,5 μM 72 h” value was determined as 66%. Also, in the series with Kelly cells, the “Cell Prolif. (%)” value was found to be 70% and the “Kelly % cell prol.” value is 66%. Besides, in the series with WERI-Rb1, the “WERI-Rb1 % cell prol.” value stood at 82%. The “SKNBE2c % cell prol.” value with SKNBE2c is recorded as 72%.
As to “SEQ ID NO: 2: PNA antigene oligonucleotide GGGTGGATGCGGGGGG directed against MYCN (PNA backbone, chemistry not fully specified)”, the “H69 % mRNA” value in the series on MYCN gene is recorded as 58%. Further, in the series on Kelly cells, the “Cell Prolif (%) 1 μM 72 h” value is listed as 74%, the “Cell Prolif. (%) 5 μM 72 h” value was determined as 12%, the “Cell Prolif. (%) 10 μM 72 h” value was determined as 2% and the “Cell Prolif (%) 2,5 μM 72 h” value stood at 32%. In the series with Kelly cells, the “Cell Prolif. (%)” value is 32% and the “Kelly % cell prol.” value was 32%. In addition, the “WERI-Rb1 % cell prol.” value in the series on WERI-Rb1 is recorded as 79%. Also, the “SKNBE2c % cell prol.” value in the series with SKNBE2c is recorded as 52%.
Consider “SEQ ID NO: 3: PNA antigene oligonucleotide GATGCGGGGGGCTCCT directed against MYCN (PNA backbone, chemistry not fully specified)”, for which the “H69 % mRNA” value in the series with MYCN gene is listed as 55%. Also, in the series on Kelly cells, the “Cell Prolif (%) 1 μM 72 h” value was 78%, the “Cell Prolif. (%) 5 μM 72 h” value worked out at 19%, the “Cell Prolif. (%) 10 μM 72 h” value worked out at 3% and the “Cell Prolif (%) 2,5 μM 72 h” value is 41%. Besides, in the series with Kelly cells, the “Cell Prolif. (%)” value is 41% and the “Kelly % cell prol.” value was determined as 41%. Moreover, the “WERI-Rb1 % cell prol.” value in the series with WERI-Rb1 is given as 78%. For the same substance, the “SKNBE2c % cell prol.” value in the series on SKNBE2c is listed as 53%.
On to “SEQ ID NO: 4: PNA antigene oligonucleotide GTCGGCGGGAGGTAAG directed against MYCN (PNA backbone, chemistry not fully specified)”, for which the “H69 % mRNA” value in the series with MYCN gene came to 55%. Further, in the series on Kelly cells, the “Cell Prolif (%) 1 μM 72 h” value is reported as 78%, the “Cell Prolif. (%) 5 μM 72 h” value stood at 21%, the “Cell Prolif. (%) 10 μM 72 h” value worked out at 3% and the “Cell Prolif (%) 2,5 μM 72 h” value came to 48%. Also, in the series with Kelly cells, the “Cell Prolif. (%)” value was found to be 48% and the “Kelly % cell prol.” value is 48%. Further, the “WERI-Rb1 % cell prol.” value in the series with WERI-Rb1 is on record as 79%. Besides, the “SKNBE2c % cell prol.” value in the series with SKNBE2c amounted to 59%.
Regarding “SEQ ID NO: 5: PNA antigene oligonucleotide GCTGGGTGGATGCGGG directed against MYCN (PNA backbone, chemistry not fully specified)”, the “H69 % mRNA” value with MYCN gene is 54%. Also, in the series with Kelly cells, the “Cell Prolif (%) 1 μM 72 h” value stood at 79%, the “Cell Prolif. (%) 5 μM 72 h” value was 27%, the “Cell Prolif. (%) 10 μM 72 h” value stood at 5% and the “Cell Prolif (%) 2,5 μM 72 h” value came out at 53%. Also, in the series on Kelly cells, the “Cell Prolif. (%)” value is recorded as 53% and the “Kelly % cell prol.” value amounted to 53%. Moreover, the “(Kelly) Cell Prolif. %” value in the series on Kelly cells (Table 7, SEQ ID NO: 5 and guanine-group mutants) was found to be 53%. Also, the “WERI-Rb1 % cell prol.” value in the series on WERI-Rb1 is reported as 80%. Further, the “SKNBE2c % cell prol.” value in the series with SKNBE2c is on record as 64%.
In the case of “SEQ ID NO: 6: PNA antigene oligonucleotide TGGACGCGCTGGGTGG directed against MYCN (PNA backbone, chemistry not fully specified)”, the “H69 % mRNA” value with MYCN gene is given as 55%. In the series on Kelly cells, the “Cell Prolif (%) 1 μM 72 h” value is 82%, the “Cell Prolif. (%) 5 μM 72 h” value was determined as 35%, the “Cell Prolif. (%) 10 μM 72 h” value was found to be 13% and the “Cell Prolif (%) 2,5 μM 72 h” value worked out at 59%. In the series with Kelly cells, the “Cell Prolif. (%)” value was 54% and the “Kelly % cell prol.” value is on record as 54%. In addition, the “WERI-Rb1 % cell prol.” value in the series with WERI-Rb1 worked out at 80%. Besides, in the series on SKNBE2c, the “SKNBE2c % cell prol.” value is on record as 57%.
Regarding “SEQ ID NO: 7: PNA antigene oligonucleotide CGCGCTGGGTGGATGC directed against MYCN (all peptide nucleic acid (PNA))”, the “H69 % mRNA” value in the series on MYCN gene was 55%. In the series on Kelly cells, the “Cell Prolif (%) 1 μM 72 h” value came out at 80%, the “Cell Prolif. (%) 5 μM 72 h” value was 31%, the “Cell Prolif. (%) 10 μM 72 h” value is 8% and the “Cell Prolif (%) 2,5 μM 72 h” value is recorded as 54%. Also, in the series with Kelly cells, the “Cell Prolif. (%)” value stood at 57% and the “Kelly % cell prol.” value stood at 57%. Besides, in the series with WERI-Rb1, the “WERI-Rb1 % cell prol.” value is recorded as 79%. Also, in the series with SKNBE2c, the “SKNBE2c % cell prol.” value is 58%.
As to “SEQ ID NO: 8: PNA antigene oligonucleotide GTCTGGACGCGCTGGG directed against MYCN (all peptide nucleic acid (PNA))”, the “H69 % mRNA” value in the series on MYCN gene is 56%. In addition, in the series with Kelly cells, the “Cell Prolif (%) 1 μM 72 h” value worked out at 80%, the “Cell Prolif. (%) 5 μM 72 h” value came to 32%, the “Cell Prolif. (%) 10 μM 72 h” value was found to be 11% and the “Cell Prolif (%) 2,5 μM 72 h” value is on record as 57%. In addition, in the series on Kelly cells, the “Cell Prolif. (%)” value is 59% and the “Kelly % cell prol.” value is reported as 59%. Further, the “WERI-Rb1 % cell prol.” value with WERI-Rb1 was found to be 78%. Moreover, the “SKNBE2c % cell prol.” value in the series with SKNBE2c was found to be 56%.
Take “SEQ ID NO: 9: PNA antigene oligonucleotide CCCTGCAGTCGGCGGG directed against MYCN (all peptide nucleic acid (PNA))”: in the series with MYCN gene, the “H69 % mRNA” value was found to be 50%. Besides, in the series with Kelly cells, the “Cell Prolif (%) 1 μM 72 h” value is recorded as 86%, the “Cell Prolif. (%) 5 μM 72 h” value is 42%, the “Cell Prolif. (%) 10 μM 72 h” value was found to be 20% and the “Cell Prolif (%) 2,5 μM 72 h” value came to 64%. Further, in the series with Kelly cells, the “Cell Prolif. (%)” value worked out at 64% and the “Kelly % cell prol.” value is given as 60%. Also, the “WERI-Rb1 % cell prol.” value with WERI-Rb1 was determined as 79%. The “SKNBE2c % cell prol.” value in the series on SKNBE2c turned out to be 64%.
For the substance “SEQ ID NO: 10: PNA antigene oligonucleotide CGGCCGCGGGCCGCCA directed against MYCN (PNA backbone, chemistry not fully specified)”, in the series on MYCN gene, the “H69 % mRNA” value is reported as 41%. For the same substance, in the series with Kelly cells, the “Cell Prolif. (%)” value was 65% and the “Kelly % cell prol.” value stood at 64%. In addition, the “WERI-Rb1 % cell prol.” value in the series on WERI-Rb1 is recorded as 85%. Moreover, the “SKNBE2c % cell prol.” value in the series with SKNBE2c is given as 70%.
